Laboratory results as given in ChEMBL document CHEMBL5335780, “The emerging role of mixed lineage kinase 3 (MLK3) and its potential as a target for neurodegenerative diseases therapies” (Eur J Med Chem, 2023).

Tests used:
[1] = target: Mitogen-activated protein kinase kinase kinase 11 (Homo sapiens, UniProt Q16584); assay: Inhibition of MLK3 (unknown origin)
[2] = target: Mitogen-activated protein kinase kinase kinase 9 (Homo sapiens, UniProt P80192); assay: Inhibition of MLK1 (unknown origin)
Mitogen-activated protein kinase kinase kinase 9, sequence (P80192 whole entry): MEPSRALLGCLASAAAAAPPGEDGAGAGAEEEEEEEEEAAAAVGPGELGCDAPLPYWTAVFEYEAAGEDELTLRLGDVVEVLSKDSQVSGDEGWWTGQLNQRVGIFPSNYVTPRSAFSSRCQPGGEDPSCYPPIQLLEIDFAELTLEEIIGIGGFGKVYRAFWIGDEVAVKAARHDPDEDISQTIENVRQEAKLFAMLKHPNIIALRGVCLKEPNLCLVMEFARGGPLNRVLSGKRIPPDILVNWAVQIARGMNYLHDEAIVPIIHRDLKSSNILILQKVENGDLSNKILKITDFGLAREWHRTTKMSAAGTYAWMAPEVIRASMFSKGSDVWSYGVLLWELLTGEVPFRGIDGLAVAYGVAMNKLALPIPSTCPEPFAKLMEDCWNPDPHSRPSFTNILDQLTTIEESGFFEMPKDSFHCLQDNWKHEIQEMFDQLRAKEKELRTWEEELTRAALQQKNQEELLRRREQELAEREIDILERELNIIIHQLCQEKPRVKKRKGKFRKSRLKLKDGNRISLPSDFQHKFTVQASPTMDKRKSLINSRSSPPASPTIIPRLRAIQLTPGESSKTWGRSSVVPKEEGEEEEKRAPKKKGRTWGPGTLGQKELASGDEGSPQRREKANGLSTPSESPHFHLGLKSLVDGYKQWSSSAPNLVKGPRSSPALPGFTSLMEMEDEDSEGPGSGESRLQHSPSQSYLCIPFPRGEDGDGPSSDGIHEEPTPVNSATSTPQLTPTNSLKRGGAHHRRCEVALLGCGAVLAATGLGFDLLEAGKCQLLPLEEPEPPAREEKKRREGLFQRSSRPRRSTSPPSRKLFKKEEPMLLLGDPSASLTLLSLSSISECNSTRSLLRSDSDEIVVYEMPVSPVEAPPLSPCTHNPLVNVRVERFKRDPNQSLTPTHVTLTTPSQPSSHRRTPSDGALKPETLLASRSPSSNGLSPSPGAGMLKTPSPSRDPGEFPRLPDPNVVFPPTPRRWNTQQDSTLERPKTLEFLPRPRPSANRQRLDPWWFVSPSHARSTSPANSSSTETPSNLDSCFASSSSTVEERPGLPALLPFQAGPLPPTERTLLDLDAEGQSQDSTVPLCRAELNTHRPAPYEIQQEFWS

Mitogen-activated protein kinase kinase kinase 11, sequence (Q16584 whole entry): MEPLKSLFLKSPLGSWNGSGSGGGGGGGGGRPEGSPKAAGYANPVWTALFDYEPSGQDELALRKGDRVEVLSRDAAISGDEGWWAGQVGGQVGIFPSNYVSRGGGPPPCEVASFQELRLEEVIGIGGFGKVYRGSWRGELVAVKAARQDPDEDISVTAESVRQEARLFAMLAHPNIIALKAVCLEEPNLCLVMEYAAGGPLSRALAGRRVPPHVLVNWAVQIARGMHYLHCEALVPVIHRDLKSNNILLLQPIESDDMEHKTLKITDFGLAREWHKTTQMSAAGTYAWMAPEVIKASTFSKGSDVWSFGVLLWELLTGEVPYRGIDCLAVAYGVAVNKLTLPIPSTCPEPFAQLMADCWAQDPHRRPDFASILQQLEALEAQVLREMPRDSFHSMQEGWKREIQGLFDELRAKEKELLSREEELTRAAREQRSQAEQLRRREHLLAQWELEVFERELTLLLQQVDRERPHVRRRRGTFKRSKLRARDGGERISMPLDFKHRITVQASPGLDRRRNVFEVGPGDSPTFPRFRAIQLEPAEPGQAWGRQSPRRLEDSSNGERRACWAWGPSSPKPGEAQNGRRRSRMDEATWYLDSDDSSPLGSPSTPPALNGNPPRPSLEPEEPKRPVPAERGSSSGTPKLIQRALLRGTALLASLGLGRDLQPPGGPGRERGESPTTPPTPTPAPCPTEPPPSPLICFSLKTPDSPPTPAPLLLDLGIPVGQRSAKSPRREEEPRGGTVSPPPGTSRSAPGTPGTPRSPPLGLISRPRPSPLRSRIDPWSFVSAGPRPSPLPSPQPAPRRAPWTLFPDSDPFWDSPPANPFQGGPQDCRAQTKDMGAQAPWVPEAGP

IC50 [1]: 23.7 nM
IC50 [2]: 44.7 nM
SMILES: OCCN1CCN(Cc2ccc(-c3cnc4[nH]cc(-c5cccc(Cl)c5)c4c3)cc2)CC1
